In US6355799B1, “Substituted benzene compounds, process for their preparation, and herbicidal and defoliant compositions containing them” (ISK Americas Incorporated, priority 1997, dated 2002):

Key:
Format in all cases: in vivo
[1] = test system: redroot pigweed (Amaranthus retroflexus, AMARE); assay: Pre-emerge test, greenhouse herbicide activity screening; conditions: rated 14 days after application, 0 = no damage, 100 = complete death
Method in brief: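 Rating: 0–100 visual injury, 14 DAA. Application: acetone, 187 l/ha, 15–1000 g ai/ha, flat-fan track sprayer with nozzle 40–45 cm above soil or canopy. Post-emerge runs used 0.25% v/v surfactant on 2–3 leaf plants.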

[2] = test system: barnyardgrass (Echinochloa crus-galli, ECHCG); assay: as above; conditions: rated 14 days after application, 0 = no damage, 100 = complete death
Method in brief: (§1)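 Compounds in acetone were track-sprayed at 15-1000 g ai/ha (187 l/ha) on sandy loam pots: pre-emerge one day after seeding, post-emerge at 2-3 leaf stage with 0.25% v/v non-ionic surfactant. Phytotoxicity was rated 14 days later on a 0 (no damage) to 100 (complete death) scale.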

[3] = test system: common ragweed (Ambrosia artemisizfolia L., AMBEL); assay: as above; conditions: rated 14 days after application, 0 = no damage, 100 = complete death
Method in brief: as §1

[4] = test system: green foxtail (Setaria viridis, SETVI); assay: as above; conditions: rated 14 days after application, 0 = no damage, 100 = complete death
Method in brief: as §1

[5] = test system: ivyleaf morningglory (Ipomoea hederacea, IPOHE); assay: as above; conditions: rated 14 days after application, 0 = no damage, 100 = complete death
Method in brief: as §1

[6] = test system: johnsongrass (Sorghum halepense, SORHA); assay: as above; conditions: rated 14 days after application, 0 = no damage, 100 = complete death
Method in brief: as §1

[7] = test system: lambsquarters (Chenopodium album, CHEAL); assay: as above; conditions: rated 14 days after application, 0 = no damage, 100 = complete death
Method in brief: as §1

[8] = test system: large crabgrass (Digitaria sanguinalis, DIGSA); assay: as above; conditions: rated 14 days after application, 0 = no damage, 100 = complete death
Method in brief: as §1

[9] = test system: sicklepod (Cassia obtusifolia, CASOB); assay: as above; conditions: rated 14 days after application, 0 = no damage, 100 = complete death
Method in brief: as §1

[10] = test system: velvetleaf (Abutilon theophrasti, ABUTH); assay: as above; conditions: rated 14 days after application, 0 = no damage, 100 = complete death
Method in brief: as §1

[11] = test system: field corn (Zea mays L., var. Dekalb 535, CORN); assay: Pre-emerge test, crop safety; conditions: rated 14 days after application, 0 = no damage, 100 = complete death
Method in brief: (§2)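 Visual ratings on a 0-100 scale (0 no damage, 100 all plants dead) were taken at 14 days after treatment. Rates of 15-1000 g ai/ha in acetone, 187 l/ha, were sprayed onto soil one day after planting (pre-emerge) or onto 2-3 leaf plants with 0.25% v/v surfactant (post-emerge).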

[12] = test system: upland rice (Oryza sp., var. Tebonnet, RICE); assay: Pre-emerge test, crop safety; conditions: rated 14 days after application, 0 = no damage, 100 = complete death
Method in brief: as §2

[13] = test system: barnyardgrass (Echinochloa crus-galli, ECHCG); assay: Post-emerge test, greenhouse herbicide activity screening; conditions: 14 days after application; for Post-emerge Herbicidal Activity ECHCG: phytotoxicity rating 0-100 (0 no damage, 100 complete death)
Method in brief: as §2

[14] = test system: common ragweed (Ambrosia artemisizfolia L., AMBEL); assay: as above; conditions: 14 days after application; for Post-emerge Herbicidal Activity AMBEL: phytotoxicity rating 0-100 (0 no damage, 100 complete death)
Method in brief: as §2

[15] = test system: green foxtail (Setaria viridis, SETVI); assay: as above; conditions: 14 days after application; for Post-emerge Herbicidal Activity SETVI: phytotoxicity rating 0-100 (0 no damage, 100 complete death)
Method in brief: as §2

[16] = test system: ivyleaf morningglory (Ipomoea hederacea, IPOHE); assay: as above; conditions: 14 days after application; for Post-emerge Herbicidal Activity IPOHE: phytotoxicity rating 0-100 (0 no damage, 100 complete death)
Method in brief: as §2

[17] = test system: johnsongrass (Sorghum halepense, SORHA); assay: as above; conditions: 14 days after application; for Post-emerge Herbicidal Activity SORHA: phytotoxicity rating 0-100 (0 no damage, 100 complete death)
Method in brief: as §2

[18] = test system: lambsquarters (Chenopodium album, CHEAL); assay: as above; conditions: 14 days after application; for Post-emerge Herbicidal Activity CHEAL: phytotoxicity rating 0-100 (0 no damage, 100 complete death)
Method in brief: as §2

[19] = test system: large crabgrass (Digitaria sanguinalis, DIGSA); assay: as above; conditions: 14 days after application; for Post-emerge Herbicidal Activity DIGSA: phytotoxicity rating 0-100 (0 no damage, 100 complete death)
Method in brief: as §2

[20] = test system: redroot pigweed (Amaranthus retroflexus, AMARE); assay: as above; conditions: 14 days after application; for Post-emerge Herbicidal Activity AMARE: phytotoxicity rating 0-100 (0 no damage, 100 complete death)
Method in brief: as §2

[21] = test system: sicklepod (Cassia obtusifolia, CASOB); assay: as above; conditions: 14 days after application; for Post-emerge Herbicidal Activity CASOB: phytotoxicity rating 0-100 (0 no damage, 100 complete death)
Method in brief: as §2

[22] = test system: velvetleaf (Abutilon theophrasti, ABUTH); assay: as above; conditions: 14 days after application; for Post-emerge Herbicidal Activity ABUTH: phytotoxicity rating 0-100 (0 no damage, 100 complete death)
Method in brief: as §2

[23] = test system: field corn (Zea mays L., var. Dekalb 535, CORN); assay: Post-emerge test, crop safety; conditions: 14 days after application; for Post-emerge Herbicidal Activity CORN (crop damage): phytotoxicity rating 0-100 (0 no damage, 100 complete death)
Method in brief: as §1

[24] = test system: upland rice (Oryza sp., var. Tebonnet, RICE); assay: Post-emerge test, crop safety; conditions: 14 days after application; for Post-emerge Herbicidal Activity RICE (crop damage): phytotoxicity rating 0-100 (0 no damage, 100 complete death)
Method in brief: as §1

[25] = post-emerge, 63 g ai/ha, rating scale 0-100

SMILES: COc1c(Cl)cc(F)c(-n2c(=O)cc(C(F)(F)F)n(C)c2=O)c1NC(=O)c1c(F)c(F)c(F)c(F)c1F [2-52]
- Pre-emerge Herbicidal Activity, phytotoxicity rating (0-100), AMARE ([1]; 63 g ai/ha): 100
- Pre-emerge Herbicidal Activity, phytotoxicity rating (0-100), ECHCG ([2]; 63 g ai/ha): 0
- Pre-emerge Herbicidal Activity, phytotoxicity rating (0-100), AMBEL ([3]; 63 g ai/ha): 0
- Pre-emerge Herbicidal Activity, phytotoxicity rating (0-100), SETVI ([4]; 63 g ai/ha): 40
- Pre-emerge Herbicidal Activity, phytotoxicity rating (0-100), IPOHE ([5]; 63 g ai/ha): 0
- Pre-emerge Herbicidal Activity, phytotoxicity rating (0-100), SORHA ([6]; 63 g ai/ha): 0
- Pre-emerge Herbicidal Activity, phytotoxicity rating (0-100), CHEAL ([7]; 63 g ai/ha): 50
- Pre-emerge Herbicidal Activity, phytotoxicity rating (0-100), DIGSA ([8]; 63 g ai/ha): 0
- Pre-emerge Herbicidal Activity, phytotoxicity rating (0-100), CASOB ([9]; 63 g ai/ha): 0
- Pre-emerge Herbicidal Activity, phytotoxicity rating (0-100), ABUTH ([10]; 63 g ai/ha): 10
- Pre-emerge phytotoxicity rating (0-100), crop damage, CORN ([11]; 63 g ai/ha): 0
- Pre-emerge phytotoxicity rating (0-100), crop damage, RICE ([12]; 63 g ai/ha): 0
- phytotoxicity rating ECHCG [13, 25]: 0
- phytotoxicity rating AMBEL [14, 25]: 20
- phytotoxicity rating SETVI [15, 25]: 0
- phytotoxicity rating IPOHE [16, 25]: 10
- phytotoxicity rating SORHA [17, 25]: 0
- phytotoxicity rating CHEAL [18, 25]: 10
- phytotoxicity rating DIGSA [19, 25]: 0
- phytotoxicity rating AMARE [20, 25]: 30
- phytotoxicity rating CASOB [21, 25]: 0
- phytotoxicity rating ABUTH [22, 25]: 30
- phytotoxicity rating CORN [23, 25]: 0
- phytotoxicity rating RICE [24, 25]: 0

SMILES: COc1c(Cl)cc(F)c(-n2c(=O)cc(C(F)(F)F)n(C)c2=O)c1NC(=O)c1ccc(C)cc1 [2-24]
- Pre-emerge Herbicidal Activity AMARE (phytotoxicity rating, scale 0-100) ([1]; 63 g ai/ha): 100
- Pre-emerge Herbicidal Activity AMARE (phytotoxicity rating, scale 0-100) ([1]; 250 g ai/ha): 100
- Pre-emerge Herbicidal Activity ECHCG (phytotoxicity rating, scale 0-100) ([2]; 63 g ai/ha): 95
- Pre-emerge Herbicidal Activity ECHCG (phytotoxicity rating, scale 0-100) ([2]; 250 g ai/ha): 100
- Pre-emerge Herbicidal Activity AMBEL (phytotoxicity rating, scale 0-100) ([3]; 63 g ai/ha): 100
- Pre-emerge Herbicidal Activity AMBEL (phytotoxicity rating, scale 0-100) ([3]; 250 g ai/ha): 100
- Pre-emerge Herbicidal Activity SETVI (phytotoxicity rating, scale 0-100) ([4]; 63 g ai/ha): 100
- Pre-emerge Herbicidal Activity SETVI (phytotoxicity rating, scale 0-100) ([4]; 250 g ai/ha): 100
- Pre-emerge Herbicidal Activity IPOHE (phytotoxicity rating, scale 0-100) ([5]; 63 g ai/ha): 100
- Pre-emerge Herbicidal Activity IPOHE (phytotoxicity rating, scale 0-100) ([5]; 250 g ai/ha): 100
- Pre-emerge Herbicidal Activity SORHA (phytotoxicity rating, scale 0-100) ([6]; 63 g ai/ha): 95
- Pre-emerge Herbicidal Activity SORHA (phytotoxicity rating, scale 0-100) ([6]; 250 g ai/ha): 100
- Pre-emerge Herbicidal Activity CHEAL (phytotoxicity rating, scale 0-100) ([7]; 63 g ai/ha): 100
- Pre-emerge Herbicidal Activity CHEAL (phytotoxicity rating, scale 0-100) ([7]; 250 g ai/ha): 100
- Pre-emerge Herbicidal Activity DIGSA (phytotoxicity rating, scale 0-100) ([8]; 63 g ai/ha): 100
- Pre-emerge Herbicidal Activity DIGSA (phytotoxicity rating, scale 0-100) ([8]; 250 g ai/ha): 100
- Pre-emerge Herbicidal Activity CASOB (phytotoxicity rating, scale 0-100) ([9]; 63 g ai/ha): 90
- Pre-emerge Herbicidal Activity CASOB (phytotoxicity rating, scale 0-100) ([9]; 250 g ai/ha): 100
- Pre-emerge Herbicidal Activity ABUTH (phytotoxicity rating, scale 0-100) ([10]; 63 g ai/ha): 100
- Pre-emerge Herbicidal Activity ABUTH (phytotoxicity rating, scale 0-100) ([10]; 250 g ai/ha): 100
- Pre-emerge crop damage CORN (phytotoxicity rating, scale 0-100) ([11]; 63 g ai/ha): 95
- Pre-emerge crop damage CORN (phytotoxicity rating, scale 0-100) ([11]; 250 g ai/ha): 98
- Pre-emerge crop damage RICE (phytotoxicity rating, scale 0-100) ([12]; 63 g ai/ha): 90
- Pre-emerge crop damage RICE (phytotoxicity rating, scale 0-100) ([12]; 250 g ai/ha): 99
- Post-emerge Herbicidal Activity ECHCG ([13]; 63 g ai/ha): 70
- Post-emerge Herbicidal Activity ECHCG ([13]; 250 g ai/ha): 95
- Post-emerge Herbicidal Activity AMBEL ([14]; 63 g ai/ha): 100
- Post-emerge Herbicidal Activity AMBEL ([14]; 250 g ai/ha): 100
- Post-emerge Herbicidal Activity SETVI ([15]; 63 g ai/ha): 20
- Post-emerge Herbicidal Activity SETVI ([15]; 250 g ai/ha): 70
- Post-emerge Herbicidal Activity IPOHE ([16]; 63 g ai/ha): 100
- Post-emerge Herbicidal Activity IPOHE ([16]; 250 g ai/ha): 100
- Post-emerge Herbicidal Activity SORHA ([17]; 63 g ai/ha): 60
- Post-emerge Herbicidal Activity SORHA ([17]; 250 g ai/ha): 90
- Post-emerge Herbicidal Activity CHEAL ([18]; 63 g ai/ha): 99
- Post-emerge Herbicidal Activity CHEAL ([18]; 250 g ai/ha): 100
- Post-emerge Herbicidal Activity DIGSA ([19]; 63 g ai/ha): 10
- Post-emerge Herbicidal Activity DIGSA ([19]; 250 g ai/ha): 50
- Post-emerge Herbicidal Activity AMARE ([20]; 63 g ai/ha): 100
- Post-emerge Herbicidal Activity AMARE ([20]; 250 g ai/ha): 100
- Post-emerge Herbicidal Activity CASOB ([21]; 63 g ai/ha): 100
- Post-emerge Herbicidal Activity CASOB ([21]; 250 g ai/ha): 100
- Post-emerge Herbicidal Activity ABUTH ([22]; 63 g ai/ha): 100
- Post-emerge Herbicidal Activity ABUTH ([22]; 250 g ai/ha): 100
- Post-emerge Herbicidal Activity CORN (crop damage) ([23]; 63 g ai/ha): 70
- Post-emerge Herbicidal Activity CORN (crop damage) ([23]; 250 g ai/ha): 95
- Post-emerge Herbicidal Activity RICE (crop damage) ([24]; 63 g ai/ha): 70
- Post-emerge Herbicidal Activity RICE (crop damage) ([24]; 250 g ai/ha): 90
